Experiments:
[1] = tested on: A549; assay: Induction of cell cycle arrest in human A549 cells assessed as accumulation of cells at G1 phase at 0.1 uM incubated for 48 hrs by PI staining based flow cytometry (reference value: 52.4%); format: toxicity; conditions: a549, 48 h
[2] = tested on: NCI-H1975; assay: Induction of apoptosis in human NCI-H1975 cells assessed as early apoptotic cells at 1 uM incubated for 48 hrs by AnnexinV-FITC/PI staining based flow cytometry (reference value: 0.61%); format: functional
[3] = tested on: A549; assay: Induction of apoptosis in human A549 cells assessed as late apoptotic cells at 1 uM incubated for 48 hrs by AnnexinV-FITC/PI staining based flow cytometry (reference value: 0.51%); format: toxicity, cell-based; conditions: a549, 48 h
[4] = tested on: A549; assay: Induction of cell cycle arrest in human A549 cells assessed as accumulation of cells at G2 phase at 1 uM incubated for 48 hrs by PI staining based flow cytometry (reference value: 18.1%); format: toxicity; conditions: a549, 48 h
[5] = tested on: HCC827; assay: Induction of cell cycle arrest in human HCC827 cells assessed as accumulation of cells at S phase at 1 uM incubated for 48 hrs by PI staining based flow cytometry (reference value: 15.2%); format: functional
[6] = tested on: HCC827; assay: Induction of apoptosis in human HCC827 cells assessed as early apoptotic cells at 1 uM incubated for 48 hrs by AnnexinV-FITC/PI staining based flow cytometry (reference value: 0.24%); format: functional
[7] = tested on: A549; assay: Induction of apoptosis in human A549 cells assessed as late apoptotic cells at 0.1 uM incubated for 48 hrs by AnnexinV-FITC/PI staining based flow cytometry (reference value: 0.51%); format: toxicity, cell-based; conditions: a549, 48 h
[8] = Cytotoxicity against human A549 cells harboring wild type EGFR assessed as reduction in cell viability measured after 72 hrs by MTT assay; format: toxicity, cell-based
[9] = tested on: A-431; assay: Induction of cell cycle arrest in human A-431 cells assessed as accumulation of cells at G1 phase at 1 uM incubated for 48 hrs by PI staining based flow cytometry (reference value: 46.9%); format: toxicity; conditions: a-431, 48 h
[10] = tested on: HCC827; assay: Induction of cell cycle arrest in human HCC827 cells assessed as accumulation of cells at G1 phase at 1 uM incubated for 48 hrs by PI staining based flow cytometry (reference value: 65.2%); format: functional
[11] = Toxicity in BALB/c mouse xenografted with N-(3-((6-Fluoro-2-((4-(4-methylpiperazin-1-yl)phenyl)amino)quinazolin-4-yl)amino)phenyl)acrylamide-resistant human NCI-H1975 cells assessed as effect on body weight at 20 mg/kg/day, ip in presence of ACK1 inhibitor, dasatinib; format: organism-based; conditions: in vivo
[12] = tested on: HCC827; assay: Induction of cell cycle arrest in human HCC827 cells assessed as accumulation of cells at G2 phase at 0.1 uM incubated for 48 hrs by PI staining based flow cytometry (reference value: 25.9%); format: functional
[13] = tested on: HCC827; assay: Induction of apoptosis in human HCC827 cells assessed as early apoptotic cells at 0.1 uM incubated for 48 hrs by AnnexinV-FITC/PI staining based flow cytometry (reference value: 0.24%); format: functional
[14] = Half-life in human liver microsomes at 1 uM measured for 60 mins by LC-MS analysis; format: ADME, Microsome
[15] = tested on: NCI-H1975; assay: Induction of apoptosis in human NCI-H1975 cells assessed as early apoptotic cells at 0.1 uM incubated for 48 hrs by AnnexinV-FITC/PI staining based flow cytometry (reference value: 0.61%); format: functional
[16] = tested on: NCI-H1975; assay: Induction of apoptosis in human NCI-H1975 cells assessed as early apoptotic cells at 10 uM incubated for 48 hrs by AnnexinV-FITC/PI staining based flow cytometry (reference value: 0.61%); format: functional
[17] = tested on: A549; assay: Induction of cell cycle arrest in human A549 cells assessed as accumulation of cells at G1 phase at 1 uM incubated for 48 hrs by PI staining based flow cytometry (reference value: 52.4%); format: toxicity; conditions: a549, 48 h
[18] = tested on: A549; assay: Induction of cell cycle arrest in human A549 cells assessed as accumulation of cells at S phase at 1 uM incubated for 48 hrs by PI staining based flow cytometry (reference value: 29.4%); format: toxicity; conditions: a549, 48 h
[19] = tested on: A-431; assay: Induction of cell cycle arrest in human A-431 cells assessed as accumulation of cells at G2 phase at 10 uM incubated for 48 hrs by PI staining based flow cytometry (reference value: 21.7%); format: toxicity; conditions: a-431, 48 h
[20] = tested on: NCI-H1975; assay: Induction of cell cycle arrest in human NCI-H1975 cells assessed as accumulation of cells at G2 phase at 10 uM incubated for 48 hrs by PI staining based flow cytometry (reference value: 19.3%); format: functional
[21] = tested on: A-431; assay: Induction of cell cycle arrest in human A-431 cells assessed as accumulation of cells at G2 phase at 0.1 uM incubated for 48 hrs by PI staining based flow cytometry (reference value: 21.7%); format: toxicity; conditions: a-431, 48 h
[22] = tested on: NCI-H1975; assay: Induction of cell cycle arrest in human NCI-H1975 cells assessed as accumulation of cells at G1 phase at 1 uM incubated for 48 hrs by PI staining based flow cytometry (reference value: 50.1%); format: functional
[23] = tested on: A-431; assay: Induction of apoptosis in human A-431 cells assessed as early apoptotic cells at 10 uM incubated for 48 hrs by AnnexinV-FITC/PI staining based flow cytometry (reference value: 1.37%); format: toxicity, cell-based; conditions: a-431, 48 h
[24] = tested on: HCC827; assay: Induction of cell cycle arrest in human HCC827 cells assessed as accumulation of cells at G2 phase at 1 uM incubated for 48 hrs by PI staining based flow cytometry (reference value: 25.9%); format: functional
[25] = tested on: A549; assay: Induction of apoptosis in human A549 cells assessed as early apoptotic cells at 10 uM incubated for 48 hrs by AnnexinV-FITC/PI staining based flow cytometry (reference value: 3.89%); format: toxicity, cell-based; conditions: a549, 48 h
[26] = tested on: A549; assay: Induction of cell cycle arrest in human A549 cells assessed as accumulation of cells at S phase at 0.1 uM incubated for 48 hrs by PI staining based flow cytometry (reference value: 29.4%); format: toxicity; conditions: a549, 48 h
[27] = tested on: A549; assay: Induction of apoptosis in human A549 cells assessed as early apoptotic cells at 1 uM incubated for 48 hrs by AnnexinV-FITC/PI staining based flow cytometry (reference value: 3.89%); format: toxicity, cell-based; conditions: a549, 48 h
[28] = tested on: HCC827; assay: Induction of cell cycle arrest in human HCC827 cells assessed as accumulation of cells at G1 phase at 0.1 uM incubated for 48 hrs by PI staining based flow cytometry (reference value: 65.2%); format: functional
[29] = tested on: A-431; assay: Induction of apoptosis in human A-431 cells assessed as late apoptotic cells at 0.1 uM incubated for 48 hrs by AnnexinV-FITC/PI staining based flow cytometry (reference value: 1.86%); format: toxicity, cell-based; conditions: a-431, 48 h
[30] = tested on: HCC827; assay: Induction of cell cycle arrest in human HCC827 cells assessed as accumulation of cells at S phase at 0.1 uM incubated for 48 hrs by PI staining based flow cytometry (reference value: 15.2%); format: functional
[31] = tested on: A-431; assay: Induction of cell cycle arrest in human A-431 cells assessed as accumulation of cells at G1 phase at 0.1 uM incubated for 48 hrs by PI staining based flow cytometry (reference value: 46.9%); format: toxicity; conditions: a-431, 48 h
[32] = tested on: A-431; assay: Induction of cell cycle arrest in human A-431 cells assessed as accumulation of cells at S phase at 1 uM incubated for 48 hrs by PI staining based flow cytometry (reference value: 30.5%); format: toxicity; conditions: a-431, 48 h

Row | Compound | Activity [1] | Activity [2] | Activity [3] | Activity [4] | Activity [5] | Activity [6] | Activity [7] | IC50 at 72 h [8] | Activity [9] | Activity [10] | Activity [12] | Activity [13] | half-life at 1 µM [14] | Activity [15] | Activity [16] | Activity [17] | Activity [18] | Activity [19] | Activity [20] | Activity [21] | further results
1 | C=CC(=O)Nc1cccc(Nc2nc(Nc3ccc(N4CCN(C)CC4)cc3)nc3ccc(F)cc23)c1 | 57.2% | 23% | 0.98% | 12% | 8.07% | 22.7% | 0.8% | 4020 nM | 54.1% | 78.2% | 13.5% | 10.1% | 1.63 h | 7.05% | 83.2% | 61.2% | 26.4% | 10.7% | 7.05% | 17.4% | Activity [11]: Non-Toxic; Activity [22]: 72.2%; Activity [23]: 14.5%; Activity [24]: 12.2%; Activity [25]: 14.6%; Activity [26]: 25.9%; Activity [27]: 6.44%; Activity [28]: 74%; Activity [29]: 2.57%; Activity [30]: 12%; Activity [31]: 52.6%; Activity [32]: 27.6%
2 | C=CC(=O)Nc1cc(Nc2nccc(-c3cn(C)c4ccccc34)n2)c(OC)cc1N(C)CCN(C)C [OSIMERTINIB] | 53.4% | 17.5% | 0.85% | 14% | 11.4% | 17.2% | 0.88% | 682 nM | 52.5% | 77.2% | 13.6% | 15.2% | 0.97 h | 7.15% | 42% | 57.7% | 29.1% | 13.1% | 10.4% | 19.9% | Activity [22]: 71.5%; Activity [23]: 28.1%; Activity [24]: 10.9%; Activity [25]: 18.6%; Activity [26]: 30.9%; Activity [27]: 8%; Activity [28]: 72.9%; Activity [29]: 4.04%; Activity [30]: 11.8%; Activity [31]: 49.8%; Activity [32]: 28.1%

— ChEMBL document CHEMBL5380860, “Design, Synthesis, and Antitumor Activity of Potent and Selective EGFR L858R/T790M Inhibitors and Identification of a Combination Therapy to Overcome Acquired Resistance in Models of Non-small-cell Lung Cancer” (J Med Chem, 2023)
